Test results reported in patent publication US9040233B2 (priority 2007, dated 2015).
Where two headings read alike, the source gives them in different places.

System: CD8+ T cells
Assay type: cell-based, human

Compound: RADEEQQQAL
- # SFU: 120 SFU/250,000 CD8+ T cells

Compound: CC[C@H](C)[C@H](NC(=O)[C@@H](N)CC(N)=O)C(=O)N[C@@H](CCCNC(=N)N)C(=O)N[C@@H](CCC(N)=O)C(=O)N[C@@H](C)C(=O)NCC(=O)N[C@H](C(=O)N[C@@H](CCC(N)=O)C(=O)N[C@@H](Cc1ccc(O)cc1)C(=O)O)C(C)C
- # SFU (donor D481 (active TB)): 1715 SFU/250,000 CD8+ T cells

Compound: CC(C)C[C@H](NC(=O)[C@H](Cc1ccc(O)cc1)NC(=O)[C@H](CO)NC(=O)[C@H](CCC(N)=O)NC(=O)[C@H](C)NC(=O)[C@@H](NC(=O)[C@@H]1CCCN1C(=O)[C@H](CO)NC(=O)[C@H](C)N)C(C)C)C(=O)O
- # SFU (donor D432 (active TB)): 210 SFU/250,000 CD8+ T cells

Compound: CC[C@H](C)[C@H](NC(=O)[C@@H](NC(=O)[C@H](C)N)C(C)C)C(=O)N[C@@H](CC(N)=O)C(=O)N[C@H](C(=O)N[C@H](C(=O)N[C@@H](CS)C(=O)N[C@@H](CC(N)=O)C(=O)N[C@@H](Cc1ccc(O)cc1)C(=O)NCC(=O)N[C@@H](CCC(N)=O)C(=O)O)[C@@H](C)O)[C@@H](C)O
- # SFU (donor D454 (LTBI)): 24 SFU/250,000 CD8+ T cells

Compound: CSCC[C@H](NC(=O)[C@@H](N)CCC(=O)O)C(=O)N[C@@H](CCCCN)C(=O)N[C@H](C(=O)N[C@@H](CC(=O)O)C(=O)N[C@@H](C)C(=O)N[C@@H](C)C(=O)N[C@H](C(=O)N[C@@H](CC(C)C)C(=O)O)[C@@H](C)O)[C@@H](C)O
- # SFU (donor D480 (active TB)): 387 SFU/250,000 CD8+ T cells

Compound: CSCC[C@H](NC(=O)[C@H](CCC(=O)O)NC(=O)[C@H](C)N)C(=O)N[C@@H](CCCCN)C(=O)N[C@H](C(=O)N[C@@H](CC(=O)O)C(=O)N[C@@H](C)C(=O)N[C@@H](C)C(=O)O)[C@@H](C)O
- # SFU (donor D466 (active TB)): 2458 SFU/250,000 CD8+ T cells

Compound: CC[C@H](C)[C@H](NC(=O)[C@H](Cc1c[nH]cn1)NC(=O)[C@H](C)NC(=O)[C@H](CC(=O)O)NC(=O)[C@H](CC(C)C)NC(=O)[C@@H](N)CC(C)C)C(=O)N1CCC[C@H]1C(=O)N[C@@H](CCC(N)=O)C(=O)N[C@@H](CC(C)C)C(=O)O
- # SFU (donor D504 (LTBI)): <10 SFU/250,000 CD8+ T cells

Compound: CC(C)[C@H](NC(=O)[C@H](Cc1ccccc1)NC(=O)[C@H](CCCNC(=N)N)NC(=O)[C@H](C)NC(=O)[C@H](Cc1c[nH]cn1)NC(=O)[C@H](C)NC(=O)[C@H](C)N)C(=O)N[C@@H](C)C(=O)N[C@@H](C)C(=O)O
- # SFU (donor D454 (LTBI)): 88 SFU/250,000 CD8+ T cells

Compound: CC(C)[C@H](NC(=O)[C@H](C)NC(=O)[C@H](C)NC(=O)[C@H](CCC(N)=O)NC(=O)[C@H](C)NC(=O)[C@H](C)NC(=O)[C@@H](N)[C@@H](C)O)C(=O)N[C@H](C(=O)N[C@@H](CCCNC(=N)N)C(=O)N[C@@H](Cc1ccccc1)C(=O)O)C(C)C
- # SFU: 258 SFU/250,000 CD8+ T cells

Compound: CSCC[C@H](NC(=O)[C@H](CCC(=O)O)NC(=O)[C@H](C)N)C(=O)N[C@@H](CCCCN)C(=O)N[C@H](C(=O)N[C@@H](CC(=O)O)C(=O)N[C@@H](C)C(=O)N[C@@H](C)C(=O)N[C@H](C(=O)N[C@@H](CC(C)C)C(=O)N[C@@H](C)C(=O)O)[C@@H](C)O)[C@@H](C)O
- # SFU: 1993 SFU/250,000 CD8+ T cells

Compound: QTVEDEARRMW
- #SFU/250,000 CD8+ T-cells: 84

Compound: ELPQWLSANR
- # SFU: <10 SFU/250,000 CD8+ T cells
